In patent US20220259593A1, “CONTROL OF MAMMALIAN GENE DOSAGE USING CRISPR” (The Regents of the University of California, priority 2019, published 2022):

Tested on: K562 CRISPRi cells
Test: Perturb-seq pooled growth measurement (sgRNA counts, growth phenotype γ, relative activity)
Format: cell-based, human
Settings: sequencing read counts; for Perturb-seq pooled growth sgRNA counts, d5: 5 days of growth (day seven after transduction); for Perturb-seq pooled growth sgRNA counts, d10: 10 days of growth (day twelve after transduction); for Perturb-seq pooled growth sgRNA counts, T0: T0 = day two after transduction
Description: Finally, we sought to use intermediate-activity sgRNAs to explore relationships between expression levels of various genes and the resulting cellular phenotypes. To simultaneously measure gene expression levels and obtain rich phenotypes for a variety of sgRNA series, we used Perturb-seq, an experimental strategy that enables matched capture of the transcriptome and the identity of an expressed sgRNA for each individual cell in pools of cells (27, 31-33) (FIG. 12A). […] In addition to the single-cell transcriptomes, we measured bulk growth phenotypes conferred by sgRNAs in these cells.
To measure the growth rate defects conferred by each sgRNA for comparison with the transcriptional phenotypes, samples of 500,000 transduced cells were taken from the same transduced cell population used in the Perturb-seq experiment on days two, seven, and twelve after transduction. Genomic DNA was extracted using the Nucleospin Blood kit (Macherey-Nagel) and sgRNA amplicons were prepared as described previously and above (19), albeit with no genomic DNA digestion or gel purification, and sequenced on HiSeq 4000 as described above for the other screens. Growth phenotypes were calculated by comparing normalized sgRNA abundances at day seven and twelve to those at day two, as described above. […] Relative sgRNA activities measured at day seven (five days of growth) were used to assign sgRNA activities in further analysis.

Substance | Perturb-seq pooled growth sgRNA counts, d5 | Perturb-seq pooled growth sgRNA counts, d10 | Perturb-seq pooled growth sgRNA counts, T0
HSPA9_−_137911079.23-P1P2_04: sgRNA targeting HSPA9, GGAGCTGCGCAATGCGGTGG, SEQ ID NO: 135 (listed as DNA, chemistry not fully specified) | 9346 | 10829 | 6754
RPS15_−_1438413.23-P1P2_00: sgRNA targeting RPS15, GACCAAAGCGATCTCTTCTG, SEQ ID NO: 60 (listed as DNA, chemistry not fully specified) | 2912 | 3376 | 6757
non-targeting_00054: non-targeting negative control sgRNA, GGGCCTGGACGAGCCTAAAA, SEQ ID NO: 163 (listed as DNA, chemistry not fully specified) [reference compound] | 29818 | 49855 | 12360
CAD_+_27440280.23-P1P2_00: sgRNA targeting CAD, GGCTGGAGAGAAGCCGGGCG, SEQ ID NO: 20 (listed as DNA, chemistry not fully specified) | 2464 | 785 | 8671
GATA1_−_48645022.23-P1P2_03: sgRNA targeting GATA1, GTGCGCTTGCCACATCCCCA, SEQ ID NO: 120 (listed as DNA, chemistry not fully specified) | 1927 | 1534 | 12276
CDC23_−_137548987.23-P1P2_11: sgRNA targeting CDC23, GACAGCCACCGGGACCACGG, SEQ ID NO: 101 (listed as DNA, chemistry not fully specified) | 14320 | 16682 | 12707
GINS1_−_25388381.23-P1P2_03: sgRNA targeting GINS1, GGACTATAACGAAAGGAGTG, SEQ ID NO: 96 (listed as DNA, chemistry not fully specified) | 2982 | 2755 | 9799
CAD_+_27440280.23-P1P2_07: sgRNA targeting CAD, GGCTGGAGCGAAGCCGGGCG, SEQ ID NO: 103 (listed as DNA, chemistry not fully specified) | 6008 | 4019 | 13241
COX11_+_53045977.23-P1P2_00: sgRNA targeting COX11, GGCTCTGGCGTCCTGGATGG, SEQ ID NO: 141 (listed as DNA, chemistry not fully specified) | 11785 | 6198 | 8084
HSPA5_+_128003624.23-P1P2_01: sgRNA targeting HSPA5, GAACCGAGTAGGCGACGGTG, SEQ ID NO: 91 (listed as DNA, chemistry not fully specified) | 3124 | 3812 | 7580
DUT_+_48624411.23-P1P2_08: sgRNA targeting DUT, GCGAGCGAGGAGGCCACCGG, SEQ ID NO: 112 (listed as DNA, chemistry not fully specified) | 4351 | 2392 | 15356
non-targeting_00089: non-targeting negative control sgRNA, GGGGTGAGGGTCCAATTCGG, SEQ ID NO: 164 (listed as DNA, chemistry not fully specified) [reference compound] | 27748 | 44919 | 10841
CAD_+_27440280.23-P1P2_13: sgRNA targeting CAD, GGCTGGAGAGAAGCCTGGCG, SEQ ID NO: 105 (listed as DNA, chemistry not fully specified) | 17097 | 19130 | 11874
DBR1_+_137893744.23-P1P2_08: sgRNA targeting DBR1, GTTTGCAGTAGTCTACACCC, SEQ ID NO: 82 (listed as DNA, chemistry not fully specified) | 11651 | 15989 | 5326
HSPA5_+_128003624.23-P1P2_04: sgRNA targeting HSPA5, GAGCCGAGAAGGCGACGGTG, SEQ ID NO: 89 (listed as DNA, chemistry not fully specified) | 3304 | 4282 | 11091
RPS18_+_33239917.23-P1P2_00: sgRNA targeting RPS18, GCTGCGATGCCGCTGGATCA, SEQ ID NO: 40 (listed as DNA, chemistry not fully specified) | 1556 | 1535 | 6212
RPS14_+_149829238.23-P1P2_01: sgRNA targeting RPS14, GAGACCCGGGCGCGACAATC, SEQ ID NO: 46 (listed as DNA, chemistry not fully specified) | 1474 | 1385 | 4954
EIF2S1_−_67827080.23-P1P2_06: sgRNA targeting EIF2S1, GAGCGAAGCGCGCGCTGAGG, SEQ ID NO: 137 (listed as DNA, chemistry not fully specified) | 1718 | 2436 | 4549
EIF2S1_−_67827080.23-P1P2_01: sgRNA targeting EIF2S1, GAGCGAAACGCACGCTGAGG, SEQ ID NO: 139 (listed as DNA, chemistry not fully specified) | 3799 | 4065 | 5433
CAD_+_27440280.23-P1P2_03: sgRNA targeting CAD, GGCTGGTGAGAAGCCGGGCG, SEQ ID NO: 102 (listed as DNA, chemistry not fully specified) | 2087 | 907 | 7290
BCR_+_23523092.23-P1P2_04: sgRNA targeting BCR, GCGCGCGGAGCCCGTCTCAG, SEQ ID NO: 127 (listed as DNA, chemistry not fully specified) | 1660 | 2119 | 5355
RPS18_+_33239917.23-P1P2_04: sgRNA targeting RPS18, GCTGCGATCCCGCTGGATCA, SEQ ID NO: 44 (listed as DNA, chemistry not fully specified) | 9728 | 13186 | 5132
GNB2L1_+_180670873.23-P1P2_13: sgRNA targeting GNB2L1, GTGCAAGGCGGCGGCGGGAG, SEQ ID NO: 57 (listed as DNA, chemistry not fully specified) | 6350 | 5991 | 4708
HSPA9_−_137911079.23-P1P2_00: sgRNA targeting HSPA9, GGAGCTGCGCGATGCGGTGG, SEQ ID NO: 131 (listed as DNA, chemistry not fully specified) | 944 | 835 | 5450
POLR2H_+_184081251.23-P1P2_07: sgRNA targeting POLR2H, GGGGCCACGAGTGCAGCAGA, SEQ ID NO: 118 (listed as DNA, chemistry not fully specified) | 6381 | 8153 | 4472
DBR1_+_137893744.23-P1P2_07: sgRNA targeting DBR1, GTTTGCAGGGGTCTACACCC, SEQ ID NO: 80 (listed as DNA, chemistry not fully specified) | 4894 | 2550 | 8500
ALDOA_+_30077139.23-P1P2_00: sgRNA targeting ALDOA, GGTCACCAGGACCCCTTCTG, SEQ ID NO: 156 (listed as DNA, chemistry not fully specified) | 4056 | 2781 | 5280
